Laboratory results from US4711883A, “Substituted 3-(4-phenyl-1-piperazinyl)alkylquinazolin-2,4-(1H,3H) diones, methods of preparation, compositions and method of use” (Ortho Pharmaceutical Corporation, priority 1985, dated 1987).
Counter-ions that a name gives are not always drawn. Like-named read-outs stand apart in the source and are kept apart here.

How the values were obtained:
[1] = system: spontaneously hypertensive rats (SHR); test: antihypertensive evaluation, systolic blood pressure, single oral dose, conscious SHR (tail cuff); type: in vivo
Method: (§1) The percent recovery is calculated by dividing the maximum decrease in mean arterial blood pressure (mm Hg) caused by tilt into the amount of rise in blood pressure at 15 seconds after initiating tilt. The antihypertensive as well as teh alpha1 -adrenergic blocking properties of the novel quinazolinedione piperazines were evaluated and set forth in Table 2.
The antihypertensive evaluation followed the following procedure:
Adult male spontaneously hypertensive rats (SHR) were placed in restrainers in a chamber warmed to 32° C. A standard indirect method employing a pneumatic pulse transducer and inflatable tail cuff was used to measure systolic blood pressure (SBP) in the conscious state. After baseline SBP were recorded, groups of 4 SHR received a single oral dose of drug or vehicle (0.5% methylcellulose) administered with a gavage tube. SBP's were obtained at 1/2, 1, 2, 3 and 4 hours post treatment. Changes in SBP's were statistically compared to the vehicle effect using Students t test, at p ε0.05.

α1 -adrenergic = α1 -adrenergic blockade: inhibition of phenylephrine-induced increases in diastolic blood pressure in the anesthetized dog; type: in vivo; conditions: for Percent Inhibition of Phenylephrin-Induced Pressor Responses: dog
Method: The α1 -adrenergic blockade: inhibition of phenylephrine-inducedincreases in diastolic blood pressure in the anesthetized dog was determined according to the method set forth in the following literature reference:
Arunlakshana, O, and Schild, H. O. (1959). Some Quantitative Uses of Drug Antagonists. Br. J. Pharmac. Chemother., 14:48-58.
The procedure is as follows:
Dogs are anesthetized and bilaterally vagotomized. A femoral artery and vein are cannulated for detection of diastolic blood pressure and drug administration, respectively. Percent inhibition of alpha adrenergic receptor antagonism is quantitiated by determining the dose-response (increase in diastolic pressure) relationship of phenylephrine before and after various doses of the antagonist. Statistical analysis of percent inhibition is calculated by use of the variance component estimation test. In addition, the Dose Ratio (DR20) may be calculated for potency comparisons and is defined as the dose of antagonist required to produce an agonist dose ratio of 20.

[2] = system: tilt reflex recovery response; design: species or system mongrel dogs; conditions: dog, in vivo
Method: as §1, with “The tilt reflex recovery response is determined as follows: Adult mongrel dogs of either sex are anesthetized with pentobarbital sodium, secured to a tilt table and surgically prepared for measurement of blood pressure and heart rate. Animals are tilted and the percent recovery of the tilt response in the blood pressure is quantitated. The percent” for “The percent”

[3] = bioavailability comparison, MABP in conscious cannulated SHR (i.v. and oral); type: in vivo, spontaneously hypertensive rats (SHR); conditions: rat, in vivo; SHR; small numbers (close to unity) indicate good bioavailability; read-out: Ratio P.O./I.V. (bioavailability ratio)
Method: (§2) The bioavailability comparison was determined in conscious direct cannulated spontaneously hypertensive rats. Briefly, the SHRs were anesthetized with ether and a carotid arterial catheter was inserted for measurement of arterial blood pressure while a jugular catheter was inserted for i.v. drug administration. For oral dosing, a catheter was also passed via the esophagus into the stomach. All catheters were exteriorized at the nape of the neck and animals were placed in restrainers and allowed to recover from surgery. Blood pressure was continuously recorded. Drugs were dissolved in 5% dextrose in water and administered as a bolus at time zero. Bioavailability results are presented in Table 3. | (a) I.V. bolus dose that lowers MABP in conscious SHR by 10%. | (b) Oral gavage dose that lowers MABP in conscious cannulated SHR by 10%. | (c) Bioavailability ratio with small numbers (close to unity) indicating | good bioavailability.

[4] = system: spontaneously hypertensive rats; test: as above; type: in vivo, spontaneously hypertensive rats (SHR); conditions: for ED10: Rattus norvegicus
Method: as §2

histamine = test: autonomic tests: histamine blood pressure responses; type: in vivo; conditions: dogs
acetylcholine = test: autonomic tests: acetylcholine blood pressure responses; type: in vivo; conditions: dogs
[5] = iv, conscious SHR, I.V. bolus, read-out: I.V. E.D.-10% (I.V. bolus dose that lowers MABP by 10%)
[6] = conscious cannulated SHR, oral gavage, read-out: P.O. E.D.-10% (oral gavage dose that lowers MABP by 10%)

Structure (SMILES) | Peak Change in Systolic Blood Pressure ([1]; 0.1 mg/kg PO) | Peak Change in Systolic Blood Pressure ([1]; 0.5 mg/kg PO) | inhibition of the tilt reflex recovery response [2] | selectivity ratio [3] | ED10 [4, 5] | ED10 [4, 6] | antihistaminic effect (inhibition of histamine blood pressure responses) (histamine) | anticholinergic effect (inhibition of acetylcholine blood pressure responses) (acetylcholine) | also measured
COc1ccccc1N1CCN(CCn2c(=O)[nH]c3ccc(OC)c(OC)c3c2=O)CC1 [Compound A, 3-{2-[4-(2-Methoxyphenyl)-1-piperazinyl]ethyl}-5,6-dimethoxyquinazolin-2,4-(1H,3H)dione monohydrobromide] | -58 mm Hg | -85 mm Hg | 37%±12 | 38.9 | 1.8 mg/kg | 70 mg/kg | almost no antihistaminic or anticholinergic effect | almost no antihistaminic or anticholinergic effect | oral hypotensive / antihypertensive activity (in words) ([1]; oral): orally effective antihypertensive profile; DR20 (dose of antagonist required to produce an agonist dose ratio of 20) (α1 -adrenergic; anesthetized dog, IV, phenylephrine): 0.0203 mg/kg; Percent Inhibition of Phenylephrin-Induced Pressor Responses (α1 -adrenergic; 0.0203 (DR20) mg/kg IV): 100%; bioavailability profile (in words) ([4]; oral/i.v. ratios compared with prior art): unexpected superior bioavailability
COc1cc2[nH]c(=O)n(CCN3CCN(c4ccccc4OC)CC3)c(=O)c2cc1OC [C, 6,7-dimethoxy-3-{2-[4-(2-methoxyphenyl)-1-piperazinyl]ethyl}-quinazolin-2,4-(1H,3H)dione] |  | -69 mm Hg |  |  |  |  |  |  | Percent Inhibition of Phenylephrin-Induced Pressor Responses (α1 -adrenergic; 0.1 mg/kg IV): 95%
Br.COc1ccccc1N1CCN(CCn2c(=O)[nH]c3ccc(O)c(O)c3c2=O)CC1.O [D, 5,6-Dihydroxy-3-{2-[4-(2-methoxyphenyl)-1-piperazinyl]ethyl}-quinazolin-2,4(1H,3H)-dione monohydrobromide monohydrate] | -60 mm Hg |  |  |  |  |  |  |  | Peak Change in Systolic Blood Pressure ([1]; 0.05 mg/kg PO): -58 mm Hg; Percent Inhibition of Phenylephrin-Induced Pressor Responses (α1 -adrenergic; 0.0303 mg/kg IV): 89%
COc1ccc(N2CCN(CCn3c(=O)[nH]c4ccc(OC)c(OC)c4c3=O)CC2)cc1 [E] |  |  |  |  |  |  |  |  | Peak Change in Systolic Blood Pressure ([1]; 20 mg/kg PO): -50 mm Hg; Percent Inhibition of Phenylephrin-Induced Pressor Responses (α1 -adrenergic; 1.0 mg/kg IV): 80%
COc1ccccc1N1CCN(CCn2c(=O)[nH]c3c(Cl)cc(OC)c(OC)c3c2=O)CC1 [B, 8-chloro-3-{2-[4-(2-methoxyphenyl)-1-piperazinyl]ethyl}-5,6-dimethoxyquinazolin-2,4-(1H,3H)-dione] |  |  |  |  |  |  |  |  | Peak Change in Systolic Blood Pressure ([1]; 10 mg/kg PO): -72 mm Hg; Percent Inhibition of Phenylephrin-Induced Pressor Responses (α1 -adrenergic; 0.03 mg/kg IV): 60%; Percent Inhibition of Phenylephrin-Induced Pressor Responses (α1 -adrenergic; 0.2 mg/kg IV): 93%
COc1ccccc1N1CCN(CCn2c(=O)[nH]c3ccccc3c2=O)CC1 [Compound Z, reference compound] | -40 mm Hg |  | 83%±8 | 740 | 0.5 mg/kg | 370 mg/kg | inhibits histamine and acetylcholine blood pressure responses | inhibits histamine and acetylcholine blood pressure responses | Percent Inhibition of Phenylephrin-Induced Pressor Responses (α1 -adrenergic; 0.010 mg/kg IV): 100%
